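GI50 is the concentration that inhibits growth by half. TGI: total growth inhibition.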
Key:
Assay in all cases: NCI-60 cell line screen, 384-well format
786-0 renal = test system: 786-0 renal
A498 renal = test system: A498 renal
A549 NSCLC = test system: A549 NSCLC
ACHN renal = test system: ACHN renal
BT-549 breast = test system: BT-549 breast
CAKI-1 renal = test system: CAKI-1 renal
COLO 205 colon = test system: COLO 205 colon
DU-145 prostate = test system: DU-145 prostate
HCC-2998 colon = test system: HCC-2998 colon
HCT-116 colon = test system: HCT-116 colon
HCT-15 colon = test system: HCT-15 colon
HL-60(TB) leukemia = test system: HL-60(TB) leukemia
HOP-62 NSCLC = test system: HOP-62 NSCLC
HOP-92 NSCLC = test system: HOP-92 NSCLC
HS 578T breast = test system: HS 578T breast
HT29 colon = test system: HT29 colon
IGROV1 ovarian = test system: IGROV1 ovarian
KM12 colon = test system: KM12 colon
LOX IMVI melanoma = test system: LOX IMVI melanoma
M14 melanoma = test system: M14 melanoma
MALME-3M melanoma = test system: MALME-3M melanoma
MCF7 breast = test system: MCF7 breast
MDA-MB-231 breast = test system: MDA-MB-231 breast
MDA-MB-435 melanoma = test system: MDA-MB-435 melanoma
MDA-MB-468 breast = test system: MDA-MB-468 breast
MOLT-4 leukemia = test system: MOLT-4 leukemia
NCI-H226 lung = test system: NCI-H226 lung
NCI-H23 lung = test system: NCI-H23 lung
NCI-H322M lung = test system: NCI-H322M lung
NCI-H460 NSCLC = test system: NCI-H460 NSCLC
NCI-H522 lung = test system: NCI-H522 lung
NCI/ADR-RES ovarian = test system: NCI/ADR-RES ovarian
OVCAR-3 ovarian = test system: OVCAR-3 ovarian
OVCAR-4 ovarian = test system: OVCAR-4 ovarian
OVCAR-5 ovarian = test system: OVCAR-5 ovarian
OVCAR-8 ovarian = test system: OVCAR-8 ovarian
PC-3 prostate = test system: PC-3 prostate
RPMI-8226 leukemia = test system: RPMI-8226 leukemia
SF-268 CNS = test system: SF-268 CNS
SF-295 CNS = test system: SF-295 CNS
SF-539 CNS = test system: SF-539 CNS
SK-MEL-28 melanoma = test system: SK-MEL-28 melanoma
SK-MEL-5 melanoma = test system: SK-MEL-5 melanoma
SK-OV-3 ovarian = test system: SK-OV-3 ovarian
SN12C renal = test system: SN12C renal
SNB-19 CNS = test system: SNB-19 CNS
SR leukemia = test system: SR leukemia
SW-620 colon = test system: SW-620 colon
T-47D breast = test system: T-47D breast
TK-10 renal = test system: TK-10 renal
U251 glioblastoma = test system: U251 glioblastoma
UACC-257 melanoma = test system: UACC-257 melanoma
UACC-62 melanoma = test system: UACC-62 melanoma

CO[C@H]1C[C@@H]2CC[C@@H](C)[C@@](O)(O2)C(=O)C(=O)N2CCCC[C@H]2C(=O)O[C@H]([C@H](C)C[C@@H]2CC[C@@H](OC(=O)C(C)(CO)CO)[C@H](OC)C2)CC(=O)[C@H](C)/C=C(\C)[C@@H](O)[C@@H](OC)C(=O)[C@H](C)C[C@H](C)/C=C/C=C/C=C/1C
GI50 (786-0 renal): 0.148 µM | TGI (786-0 renal): 14.2 µM | TGI (A498 renal): 14.5 µM | TGI (A549 NSCLC): 15.4 µM | GI50 (ACHN renal): 2.31 µM | TGI (ACHN renal): 15.1 µM | TGI (BT-549 breast): 1.7 µM | GI50 (CAKI-1 renal): 1.26 µM | TGI (CAKI-1 renal): 15.1 µM | GI50 (COLO 205 colon): 11.2 µM | TGI (COLO 205 colon): 23.3 µM | GI50 (DU-145 prostate): 1.05 µM | TGI (DU-145 prostate): 15.7 µM | GI50 (HCC-2998 colon): 1.2 µM | TGI (HCC-2998 colon): 11.6 µM | GI50 (HCT-116 colon): 3.23 µM | TGI (HCT-116 colon): 15.5 µM | GI50 (HCT-15 colon): 0.473 µM | TGI (HCT-15 colon): 15 µM | GI50 (HL-60(TB) leukemia): 1.63 µM | TGI (HL-60(TB) leukemia): 3 µM | GI50 (HOP-62 NSCLC): 0.233 µM | TGI (HOP-62 NSCLC): 13.3 µM | GI50 (HOP-92 NSCLC): 2.75 µM | TGI (HOP-92 NSCLC): 8.39 µM | TGI (HS 578T breast): 1.74 µM | GI50 (HT29 colon): 2.33 µM | TGI (HT29 colon): 12.8 µM | TGI (IGROV1 ovarian): 5.04 µM | GI50 (KM12 colon): 2.22 µM | TGI (KM12 colon): 17.4 µM | GI50 (LOX IMVI melanoma): 1.19 µM | TGI (LOX IMVI melanoma): 11.3 µM | GI50 (M14 melanoma): 5.55 µM | TGI (M14 melanoma): 19.8 µM | TGI (MALME-3M melanoma): 3.29 µM | TGI (MCF7 breast): 10.1 µM | GI50 (MDA-MB-231 breast): 1.82 µM | TGI (MDA-MB-231 breast): 7.89 µM | GI50 (MDA-MB-435 melanoma): 11.4 µM | TGI (MDA-MB-435 melanoma): 23.6 µM | TGI (MDA-MB-468 breast): 2.53 µM | TGI (MOLT-4 leukemia): 1.54 µM | GI50 (NCI-H226 lung): 1.11 µM | TGI (NCI-H226 lung): 4.08 µM | GI50 (NCI-H23 lung): 1.93 µM | TGI (NCI-H23 lung): 15.7 µM | GI50 (NCI-H322M lung): 1.32 µM | TGI (NCI-H322M lung): 12.7 µM | GI50 (NCI-H460 NSCLC): 0.404 µM | TGI (NCI-H460 NSCLC): 15.5 µM | GI50 (NCI-H522 lung): 2.23 µM | TGI (NCI-H522 lung): 11.5 µM | GI50 (NCI/ADR-RES ovarian): 4.89 µM | TGI (NCI/ADR-RES ovarian): 22.5 µM | GI50 (OVCAR-3 ovarian): 0.867 µM | TGI (OVCAR-3 ovarian): 13.9 µM | GI50 (OVCAR-4 ovarian): 1.53 µM | TGI (OVCAR-4 ovarian): 12.6 µM | GI50 (OVCAR-5 ovarian): 12.5 µM | TGI (OVCAR-5 ovarian): 25.4 µM | GI50 (OVCAR-8 ovarian): 0.791 µM | TGI (OVCAR-8 ovarian): 15.9 µM | GI50 (PC-3 prostate): 1.16 µM | TGI (PC-3 prostate): 11.8 µM | TGI (RPMI-8226 leukemia): 1.06 µM | GI50 (SF-268 CNS): 2.81 µM | TGI (SF-268 CNS): 14.1 µM | TGI (SF-295 CNS): 3.62 µM | GI50 (SF-539 CNS): 1.12 µM | TGI (SF-539 CNS): 15.1 µM | GI50 (SK-MEL-28 melanoma): 3.04 µM | TGI (SK-MEL-28 melanoma): 14.7 µM | GI50 (SK-MEL-5 melanoma): 1.63 µM | TGI (SK-MEL-5 melanoma): 11.4 µM | GI50 (SK-OV-3 ovarian): 11.6 µM | TGI (SK-OV-3 ovarian): 27.5 µM | GI50 (SN12C renal): 4.56 µM | TGI (SN12C renal): 19.2 µM | GI50 (SNB-19 CNS): 5.96 µM | TGI (SNB-19 CNS): 20.2 µM | TGI (SR leukemia): 0.441 µM | GI50 (SW-620 colon): 11.2 µM | TGI (SW-620 colon): 23.9 µM | TGI (T-47D breast): 5.11 µM | GI50 (TK-10 renal): 12 µM | TGI (TK-10 renal): 26.3 µM | GI50 (U251 glioblastoma): 2.22 µM | TGI (U251 glioblastoma): 14 µM | GI50 (UACC-257 melanoma): 8.32 µM | TGI (UACC-257 melanoma): 20.3 µM | GI50 (UACC-62 melanoma): 1.79 µM | TGI (UACC-62 melanoma): 15 µM
